Read-outs that look alike come from different tables or passages of the source.

The target in one test is Cathepsin B (Homo sapiens, UniProt P07858). Kind of test: Cathepsin B Activity Assay. Format: biochemical. Particulars: 36 μM z-RR-AMC; 3.6 nM enzyme; pre-incubated 30 minutes at 25° C., 60 minutes at 37° C.; sigmoidal fit; read-out: Cathepsin B (Inhibition of cysteine protease activities). On the procedure:
Cathepsin B was diluted in Cathepsin B buffer (20 mM Tris HCl pH 6.8; 1 mM EDTA; 1 mM DTT). Compounds stocks (100 mM) were stored at −20° C. in DMSO. Compounds were tested at the following final concentrations: 100 μM; 33.3 μM; 11.1 μM; 3.7 μM; 1.23 μM; 412 nM; 137 nM; 45.7 nM; 15.2 nM; 5 nM. Reactions were performed as duplicates in Black LJL 96 well plates (HE microplates; Molecular Devices; 20 μl final reaction volume). The substrate concentration for cathepsin B specificity assay was 36 μM (z-RR-AMC; Calbiochem). The concentration of the enzyme (Cathepsin B) in specificity assays was 3.6 nM. The concentrations were determined in order to perform specificity assays under initial velocities at fixed substrate concentration. Compounds were pre-incubated with enzymes for 30 minutes at 25° C. Reactions were initiated by addition of substrate to the plates containing the enzymes (+/− compounds) diluted in assay buffer. Reactions were incubated for 60 minutes at 37° C. Reactions were stopped by adding acetic acid (100 mM final). Readings were performed on a Pherastar Fluorescent Reader (BMG). δ […]. Data (mean values +/− standard deviation) were analyzed as % of control (no compound) and plotted as percentage versus the Log of the compound concentration using GraphPad (Prism). Data were fitted to a sigmoidal model (variable slope).

The target of another test is T1, USP5 (Homo sapiens, UniProt P45974).
T1 sequence (P45974 1-858): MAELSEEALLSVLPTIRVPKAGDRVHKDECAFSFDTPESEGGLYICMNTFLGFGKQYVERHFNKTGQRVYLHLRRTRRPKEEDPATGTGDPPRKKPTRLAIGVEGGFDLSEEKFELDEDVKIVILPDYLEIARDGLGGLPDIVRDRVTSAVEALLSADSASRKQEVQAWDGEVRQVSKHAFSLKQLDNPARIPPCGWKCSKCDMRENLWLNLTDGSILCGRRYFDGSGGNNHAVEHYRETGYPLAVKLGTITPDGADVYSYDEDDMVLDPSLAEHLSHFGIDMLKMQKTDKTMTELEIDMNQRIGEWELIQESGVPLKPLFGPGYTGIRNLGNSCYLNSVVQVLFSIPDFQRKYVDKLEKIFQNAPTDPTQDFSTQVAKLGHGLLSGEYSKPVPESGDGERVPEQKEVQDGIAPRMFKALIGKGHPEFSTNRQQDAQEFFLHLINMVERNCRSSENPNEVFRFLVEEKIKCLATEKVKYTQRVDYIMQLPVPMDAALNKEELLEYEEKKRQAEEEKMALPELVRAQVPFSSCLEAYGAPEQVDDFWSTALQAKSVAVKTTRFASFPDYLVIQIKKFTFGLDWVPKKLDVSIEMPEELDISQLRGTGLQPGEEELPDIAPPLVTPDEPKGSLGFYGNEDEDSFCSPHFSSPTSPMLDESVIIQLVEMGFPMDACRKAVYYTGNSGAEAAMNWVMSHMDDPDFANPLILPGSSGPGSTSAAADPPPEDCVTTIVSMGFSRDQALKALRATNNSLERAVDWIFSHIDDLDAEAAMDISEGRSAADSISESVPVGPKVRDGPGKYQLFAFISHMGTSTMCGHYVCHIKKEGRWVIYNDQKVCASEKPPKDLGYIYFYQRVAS
Kind of test: USP5 Activity Assay. It counts as biochemical. Particulars: 400 nM Ub-AMC; 300 pM enzyme; pre-incubated 30 minutes at 25° C., 60 minutes at 37° C.; sigmoidal fit; read-out: USP 5 (Inhibition of cysteine protease activities). Here is the method:
USP5 was diluted in USP buffer (50 mM Tris HCl; 0.5 mM EDTA; 5 mM DTT; 0.01% Triton X-100; Bovine Serum Albumin 0.05 mg.ml^−1 pH 7.6). Compounds stocks (100 mM) were stored at −20° C. in DMSO.
Reactions were performed as duplicates in Black LJL 96 well plates (HE microplates; Molecular Devices; 20 μl final reaction volume). The substrate concentration for USP5 was 400 nM Ub-AMC (Boston Biochem). The concentrations of the enzyme (USP5) in specificity assays was 300 pM. The concentrations were determined in order to perform specificity assays under initial velocities at fixed substrate concentration. Compounds were pre-incubated with enzymes for 30 minutes at 25° C. Reactions were initiated by addition of substrate to the plates containing the enzymes (+/− compounds) diluted in assay buffer. Reactions were incubated for 60 minutes at 37° C. Reactions were stopped by adding acetic acid (100 mM final). Readings were performed on a Pherastar Fluorescent Reader (BMG). λ Emission 380 nm; λ Excitation=460 nm. Data (mean values +/− standard deviation) were analyzed as % of control (no compound) and plotted as percentage versus the Log of the compound concentration using GraphPad (Prism). Data were fitted to a sigmoidal model (variable slope).

In test [1] the test system is HCT116 colon cancer cells. Kind of test: HCT116 Cell Viability and Proliferation Assay. Format: cell-based. Particulars: MTS, mean of three independent experiments, read-out: HCT116 GI50 D3. Here is the method:
HCT116 colon cancer cells were obtained from ATCC (American Type Culture Collection), and maintained in Mc Coy's 5A medium containing 10% FBS, 3 mM glutamine and 1% penicillin/streptomycin. Cells were incubated at 37° C. in a humidified atmosphere containing 5% CO2.
Cell viability was assayed using the MTS technique in 96-well culture plates (CellTiter 96® Aqueous Non-Radioactive Cell Proliferation Assay, Promega) according to the manufacturer's instructions. MTS (3-(4,5-dimethylthiazol-2-yl)-5(3-carboxymethoxyphenyl)-2-(4-sulfophenyl)-2H-tetra-zolium) is a MTT-derived tetrazolium that is reduced in metabolically active cells into a soluble, cell-permeant formazan. The amount of formazan, detected by its absorbance at 492 nm is proportional to the number of living, metabolically active cells.
10^3 HCT116 cells were seeded per well. 24 hours later, the medium was changed and the cells treated in triplicate with the following concentrations of each compound: 10 μM-3.33 μM-1.11 μM-370 nM-123 nM-41 nM-14 nM and 5 nM. The compounds were diluted in 100% DMSO, whose final concentration on cells was kept at 0.5%.
Cells were incubated with the compounds for 72 hours, and their viability then assayed by the addition of MTS for 2 hours. Absorbance at 492 nm was measured directly from the 96-well culture plates. GI50 (Growth Inhibition 50) concentrations for each compound were calculated using a sigmoidal variable slope fit (Prism 4.0, Graphpad Softwares). Values represent mean of three independent experiments.

Where [2] appears, read: Homo sapiens, HCT-116, 72 hours.

Turning to `COCc1nnc2nc3c(nn12)-c1ccccc1C3=O` [Example 1i/B, 3-Methoxymethyl-1,2,3a, 4,10-pentaaza-cyclopenta[b]fluoren-9-one], the IC50 on Cathepsin B came to 314 nM; at USP5, 487 nM.
Regarding `CCc1nnc2nc3c(nn12)C(=O)c1ccccc1-3` [Example 1d/A, 1-Ethyl-2,3,4,10,10a-pentaaza-cyclopenta[b]fluoren-9-one], at USP5, the IC50 was found to be 3230 nM.
Consider `CC(C)Cc1nnc2nc3c(nn12)C(=O)c1ccccc1-3` [Example 1g/A, 1-Isobutyl-2,3,4,10,10a-pentaaza-cyclopenta[b]fluoren-9-one], for which the IC50 at Cathepsin B was 4620 nM; at USP5 it was greater than 100000 nM.
As to `Cc1nnc2nc3c(nn12)-c1ccccc1C3=O` [Example 1b/B, 3-Methyl-1,2,3a,4,10-pentaaza-cyclopenta[b]fluoren-9-one], the IC50 at Cathepsin B turned out to be 182 nM.
`Cc1nnc2nc3c(nn12)-c1ccc(Cl)cc1C3=O` [Example 3/B, 7-Chloro-3-methyl-1,2,3a, 4,10-pentaaza-cyclopenta[b]fluoren-9-one]: the IC50 on Cathepsin B was found to be 147 nM; at USP5, 260 nM.
On the same counts, the results for `Cc1nnc2nc3c(nn12)C(=O)c1ccccc1-3` [Example 1b/A, 1-Methyl-2,3,4,10,10a-pentaaza-cyclopenta[b]fluoren-9-one] are 24000 nM and 7600 nM.
As for `O=C1c2ccccc2-c2nn3c(C4CC4)nnc3nc21` [Example 1j/B, 3-Cyclopropyl-1,2,3a,4,10-pentaaza-cyclopenta[b]fluoren-9-one], the IC50 on Cathepsin B was determined as 181 nM.
Still for that read-out and setting: as for `O=C1c2ccccc2-c2nn3c(Cc4ccccc4)nnc3nc21` [Example 1k/B, 3-Benzyl-1,2,3a,4,10-pentaaza-cyclopenta[b]fluoren-9-one], the figure is 363 nM.
`O=C1c2ccccc2-c2nc3nn(Cc4ccccc4)nc3nc21` [Example 4b, 2-Benzyl-2H-1,2,3,4,10-pentaaza-cyclopenta[b]fluoren-9-one]: the GI50 in test [1] (setting [2]) was greater than 10000 nM.
With `CCCc1nnc2nc3c(nn12)-c1ccccc1C3=O` [Example 1e/B, 3-Propyl-1,2,3a, 4,10-pentaaza-cyclopenta[b]fluoren-9-one], the IC50 on Cathepsin B stood at 267 nM.
As to `O=C1c2ccccc2-c2nc3nnc(CO)n3nc21` [Example 1h/A, 1-Hydroxymethyl-2,3,4,10,10a-pentaaza-cyclopenta[b]fluoren-9-one], the IC50 was 30000 nM on Cathepsin B and 2500 nM at USP5.
With `Nc1nnc2nc3c(nn12)-c1ccccc1C3=O` [Example 1c/B, 3-Amino-1,2,3a,4,10-pentaaza-cyclopenta[b]fluoren-9-one], the IC50 on Cathepsin B was found to be 103 nM.
Turning to `CCCCc1nnc2nc3c(nn12)-c1ccccc1C3=O` [Example 1f/B, 3-Butyl-1,2,3a,4,10-pentaaza-cyclopenta[b]fluoren-9-one], the IC50 on Cathepsin B came to 233 nM; at USP5, 237 nM.
On the same counts, the results for `CCCc1nnc2nc3c(nn12)C(=O)c1ccccc1-3` [Example 1e/A, 1-Propyl-2,3,4,10,10a-pentaaza-cyclopenta[b]fluoren-9-one] are 5410 nM and greater than 100000 nM.
As to `Cn1nc2nc3c(nc2n1)-c1ccccc1C3=O` [Example 4a, 2-Methyl-2H-1,2,3,4,10-pentaaza-cyclopenta[b]fluoren-9-one], the results for the IC50 at Cathepsin B and at USP5 were greater than 100000 nM and 23000 nM, respectively. Besides, in test [1] (setting [2]), the GI50 was greater than 10000 nM.
`O=C1c2ccccc2-c2nn3c(CO)nnc3nc21` [Example 1h/B]: the IC50 at Cathepsin B was 547 nM.
In the case of `CCCCc1nnc2nc3c(nn12)C(=O)c1ccccc1-3` [Example 1f/A, 1-Butyl-2,3,4,10,10a-pentaaza-cyclopenta[b]fluoren-9-one], the IC50 at Cathepsin B was 6500 nM; at USP5, 3900 nM.
Taken in the same sequence, the figures for `COCc1nnc2nc3c(nn12)C(=O)c1ccccc1-3` [Example 1i/A, 1-Methoxymethyl-2,3,4,10,10a-pentaaza-cyclopenta[b]fluoren-9-one] were 1020 nM and greater than 100000 nM.
`CC(C)Cc1nnc2nc3c(nn12)-c1ccccc1C3=O` [Example 1g/B, 3-Isobutyl-1,2,3a,4,10-pentaaza-cyclopenta[b]fluoren-9-one]: on Cathepsin B, the IC50 came to 264 nM.
On to “6-(7)-Chloro-1-methyl-2,3,4,10,10a-pentaaza-cyclopenta[b]fluoren-9-one [Example 3/A]”, for which the IC50 on Cathepsin B was found to be 17400 nM; on USP5 it was 1540 nM. In addition, the GI50 in test [1] (72 hours) was 361 nM.
For the compound `Nc1nnc2nc3c(nn12)C(=O)c1ccccc1-3` [Example 1c/A, 1-Amino-2,3,4,10,10a-pentaaza-cyclopenta[b]fluoren-9-one], the figures for the IC50 at Cathepsin B and on USP5 were 5000 nM and 2800 nM, respectively.
For the compound `CCc1nnc2nc3c(nn12)-c1ccccc1C3=O` [Example 1d/B, 3-Ethyl-1,2,3a, 4,10-pentaaza-cyclopenta[b]fluoran-9-one], the IC50 on Cathepsin B was 150 nM.

The values are drawn from patent publication US7462615B2, “Inhibitors of cysteine proteases, the pharmaceutical compositions thereof and their therapeutic applications” (Hybrigenics SA, priority 2005, dated 2008).
